The values that follow come from patent US20260274814A1, “THIENYL COMPOUNDS FOR THE TREATMENT OF A CENTRAL NERVOUS SYSTEM DISEASE OR DISORDER” (Coreterra Therapeutics, Inc., priority 2023, published 2026).

In the test the test system is mice. Nature of the test: Neuropharmacological Assay (SmartCube): automated behavioral signature of compound-treated mice compared with a database of reference drug classes. The settings on record: for minimal effective dose: Mus musculus, ip; for minimal effective dose / MED / MED (minimal effective dose): i.p., that dose is shown; for AD / AG / AN / AP / AX / CE / HL / MS / PS / SH / UK: 3.0 mg/kg i.p., 15 min before test. Format: in vivo. Put shortly:
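Probabilities reflect how closely the digitally recorded behavioural signature at 3.0 mg/kg i.p. matched each reference class (antipsychotic, anxiolytic, antidepressant etc.). Dosing occurred 15 min before testing. Minimal effective dose was the dose giving 45% or more total activity.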

The mark [1] stands for this setting: probability that activity matches this class of agents.
The mark [2] stands for this setting: minimal effective dose: dose having 45% or more total activity in SmartCube, if only one dose tested, read-out: MED.
Where [3] appears, read: SmartCube class probability, hydrochloride, 3 mg/kg.
The mark [4] stands for this setting: minimal effective dose: dose having 45% or more total activity in SmartCube, if only one dose tested, hydrochloride.
The mark [5] stands for this setting: dose having 45% or more total activity in SmartCube, if only one dose was tested.
[6] abbreviates: probability that activity matches this class of agents, hydrochloride, 3 mg/kg.

Counter-ions that a name gives are not always drawn. Like-named read-outs stand apart in the source and are kept apart here. A value given as a limit tells only on which side of the number the result lay.

As to `CNC1CCc2sc(Cl)cc2C1` (stereo not drawn) [Compound 97, 2-chloro-N-methyl-4,5,6,7-tetrahydrobenzothiophen-5-amine hydrochloride], under “dose having 45% or more total activity in SmartCube, if only one dose was tested, read-out: MED (minimal effective dose)”, the minimal effective dose was found to be 1 mg/kg. In addition, under setting [1], the AD result is recorded as “++++ (≥74%)”, the AG result is recorded as “ND (^ <4%)”, the AN entry is “ND (^ <4%)” and the AP result is given as “ND (^ <4%)”. Further, under setting [1], the AX result is given as “ND (^ <4%)”, the CE entry is recorded as “ND (^ <4%)”, the HL result is listed as “ND (^ <4%)” and the MS result is on record as “ND (^ <4%)”. Further, under setting [1], the PS result was “ND (^ <4%)”, the SH result was “ND (^ <4%)” and the UK result is “ND (^ <4%)”.
Turning to `Cc1scc2c1CCC(N)C2` (single isomer, unassigned) [Compound 164, 1-methyl-4,5,6,7-tetrahydro-2-benzothiophen-5-amine hydrochloride], the minimal effective dose under setting [2] came out at 3 mg/kg. For the setting “SmartCube class probability”, the AG entry is listed as “ND (^ <4%)”, the AN entry is given as “ND (^ <4%)”, the AP result is reported as “ND (^ <4%)” and the AX entry is recorded as “ND (^ <4%)”. Besides, for the setting “SmartCube class probability”, the CE entry is on record as “ND (^ <4%)”, the MS result is “ND (^ <4%)”, the PS entry is recorded as “ND (^ <4%)” and the SH entry was “ND (^ <4%)”. In addition, the UK entry (SmartCube class probability) is recorded as “ND (^ <4%)”. For the same compound, under setting [3], the AD result is listed as “+++ (≥49%)” and the HL result is “ND (^ <4%)”.
Take `CNC1CCc2c(C(F)(F)F)csc2C1` (single isomer, unassigned) [Compound 230, N-methyl-3-(trifluoromethyl)-4,5,6,7-tetrahydrobenzothiophen-6-amine hydrochloride]: the minimal effective dose under setting [2] came to 3 mg/kg. Also, under “SmartCube class probability”, the AG result is “ND (^ <4%)”, the AN result is “ND (^ <4%)”, the AP result is listed as “ND (^ <4%)” and the AX result is recorded as “ND (^ <4%)”. Also, where the note is “SmartCube class probability”, the CE result is listed as “ND (^ <4%)”, the HL entry is recorded as “ND (^ <4%)”, the MS entry was “ND (^ <4%)” and the PS entry is reported as “ND (^ <4%)”. Also, the SH entry (SmartCube class probability) is on record as “ND (^ <4%)”. For the same compound, under setting [3], the AD entry is recorded as “+ (≥4%)” and the UK entry is given as “ND (^ <4%)”.
`NC1CCc2scc(F)c2C1` (single isomer, unassigned) [Compound 192, 3-fluoro-4,5,6,7-tetrahydrobenzothiophen-5-amine hydrochloride]: for the setting “SmartCube class probability”, the AX entry is “ND (^ <4%)”, the HL result is given as “ND (^ <4%)”, the MS entry was “ND (^ <4%)” and the SH entry is on record as “ND (^ <4%)”. Under setting [3], the AD result is “ND (^ <4%)”, the AG result is listed as “ND (^ <4%)”, the AN result is on record as “ND (^ <4%)” and the AP result was “ND (^ <4%)”. For the same compound, under setting [3], the CE entry was “ND (^ <4%)”, the PS result is “ND (^ <4%)” and the UK result was “+++ (≥49%)”. The MED under setting [4] is reported as 3 mpk.
Consider `N#Cc1csc2c1CC(N)CC2` (single isomer, unassigned) [Compound 177, 5-amino-4,5,6,7-tetrahydrobenzo[b]thiophene-3-carbonitrile hydrochloride], for which, for the setting “SmartCube class probability”, the AD entry was “ND (^ <4%)”, the AG result is on record as “ND (^ <4%)”, the AN result was “ND (^ <4%)” and the AP result is recorded as “ND (^ <4%)”. Moreover, where the note is “SmartCube class probability”, the AX entry is “ND (^ <4%)”, the CE result is recorded as “ND (^ <4%)”, the HL entry was “ND (^ <4%)” and the MS result is “ND (^ <4%)”. Further, under “SmartCube class probability”, the PS entry is “ND (^ <4%)” and the SH result is “ND (^ <4%)”. Also, the UK entry under setting [3] was “++++ (≥74%)”. This compound returned an MED under setting [4] of 3 mpk.
Regarding `c1scc2c1CCC(NCC1CC1)C2` (single isomer, unassigned) [Compound 158, N-(cyclopropylmethyl)-4,5,6,7-tetrahydro-2-benzothiophen-5-amine hydrochloride], for the setting “SmartCube class probability”, the AD result is “ND (^ <4%)”, the AG entry is listed as “ND (^ <4%)”, the AN result was “ND (^ <4%)” and the AP result is reported as “ND (^ <4%)”. Besides, for the setting “SmartCube class probability”, the CE entry is recorded as “ND (^ <4%)”, the HL result is reported as “ND (^ <4%)”, the MS entry is given as “ND (^ <4%)” and the PS result is listed as “ND (^ <4%)”. For the same compound, under “SmartCube class probability”, the SH result is reported as “ND (^ <4%)”. Besides, under setting [3], the AX entry is reported as “++++ (≥74%)” and the UK result is “ND (^ <4%)”. Under setting [4], this compound gave an MED of 1 mpk.
For the compound `CNC1CCc2scc(F)c2C1` (single isomer, unassigned) [Compound 138, 3-fluoro-N-methyl-4,5,6,7-tetrahydrobenzothiophen-5-amine hydrochloride], the “MED (minimal effective dose)” value under setting [5] is listed as 1 mpk. Besides, under setting [1], the AD result is recorded as “ND (^ <4%)”, the AG entry was “ND (^ <4%)”, the AN entry is “ND (^ <4%)” and the CE result is on record as “ND (^ <4%)”. Further, under setting [1], the HL entry is reported as “ND (^ <4%)”, the MS result is “ND (^ <4%)”, the PS result was “ND (^ <4%)” and the SH entry is given as “ND (^ <4%)”. Besides, the UK result under setting [1] is reported as “ND (^ <4%)”. Further, under setting [6], the AP entry is “+++ (≥49%)” and the AX entry is “++ (≥24%)”.
Turning to `CNC1CCc2scc(Cl)c2C1` (single isomer, unassigned) [Compound 132, 3-chloro-N-methyl-4,5,6,7-tetrahydrobenzothiophen-5-amine hydrochloride], the “MED (minimal effective dose)” value under setting [5] turned out to be 3 mpk. Under setting [1], the AG result is “ND (^ <4%)”, the AN entry was “ND (^ <4%)”, the AX result is reported as “ND (^ <4%)” and the CE entry was “ND (^ <4%)”. In addition, under setting [1], the HL result is recorded as “ND (^ <4%)” and the SH result is “ND (^ <4%)”. Also, under setting [6], the AD entry was “ND (^ <4%)”, the AP result is recorded as “+ (≥4%)”, the MS entry is reported as “ND (^ <4%)” and the PS entry is recorded as “+ (≥4%)”. For the same compound, the UK result under setting [6] was “++ (≥24%)”.
For the compound `NC1CCc2scc(C(F)(F)F)c2C1` (single isomer, unassigned) [Compound 254, 3-(trifluoromethyl)-4,5,6,7-tetrahydrobenzothiophen-5-amine hydrochloride], the minimal effective dose under setting [2] was over 3 mg/kg. Where the note is “SmartCube class probability”, the AD result is on record as “ND (^ <4%)”, the AG result is listed as “ND (^ <4%)”, the AN result is “ND (^ <4%)” and the AP result was “ND (^ <4%)”. For the setting “SmartCube class probability”, the AX entry is “ND (^ <4%)”, the CE result is “ND (^ <4%)”, the HL result is on record as “ND (^ <4%)” and the MS result is “ND (^ <4%)”. Moreover, where the note is “SmartCube class probability”, the PS result is listed as “ND (^ <4%)” and the SH entry was “ND (^ <4%)”. In addition, under setting [3], the UK entry is on record as “+ (≥4%)”.
`CCc1csc2c1CC(N)CC2` (stereo not drawn) [Compound 208, 3-ethyl-4,5,6,7-tetrahydrobenzothiophen-5-amine hydrochloride]: under setting [2], the minimal effective dose is over 3 mg/kg. For the setting “SmartCube class probability”, the AD result is reported as “ND (^ <4%)”, the AG entry is recorded as “ND (^ <4%)”, the AN result is recorded as “ND (^ <4%)” and the AP entry is given as “ND (^ <4%)”. Besides, under “SmartCube class probability”, the AX result is on record as “ND (^ <4%)”, the CE entry is “ND (^ <4%)”, the HL result is “ND (^ <4%)” and the MS entry is listed as “ND (^ <4%)”. Further, under “SmartCube class probability”, the PS result was “ND (^ <4%)”, the SH result was “ND (^ <4%)” and the UK entry was “+ (≥4%)”.
Turning to `CNC1CCc2c(sc(Cl)c2C)C1` (single isomer, unassigned) [Compound 148, 2-chloro-N, 3-dimethyl-4,5,6,7-tetrahydrobenzothiophen-6-amine hydrochloride], for the setting “SmartCube class probability”, the AG entry was “ND (^ <4%)”, the CE result is “ND (^ <4%)”, the MS result is recorded as “ND (^ <4%)” and the PS result was “ND (^ <4%)”. Also, the SH result (SmartCube class probability) is given as “ND (^ <4%)”. In addition, under setting [3], the AD result is on record as “+++ (≥49%)”, the AN result is “ND (^ <4%)”, the AP result was “+ (≥4%)” and the AX result is listed as “++ (≥24%)”. In addition, under setting [3], the HL result is “ND (^ <4%)” and the UK result is recorded as “ND (^ <4%)”. This compound returned an MED (minimal effective dose: dose having 45% or more total activity in SmartCube, if only one dose tested) of 3 mpk.
As to `CN(C)C1CCc2cscc2C1.Cl` (single isomer, unassigned) [Compound 156, N,N-dimethyl-4,5,6,7-tetrahydro-2-benzothiophen-5-amine hydrochloride], the minimal effective dose under setting [2] came to 3 mg/kg. Under “SmartCube class probability”, the AD result is recorded as “ND (^ <4%)”, the AG result was “ND (^ <4%)”, the AN entry was “ND (^ <4%)” and the AP result was “ND (^ <4%)”. For the setting “SmartCube class probability”, the CE entry is “ND (^ <4%)”, the HL entry is reported as “ND (^ <4%)”, the MS entry is listed as “ND (^ <4%)” and the PS result is recorded as “ND (^ <4%)”. For the same compound, the SH entry (SmartCube class probability) was “ND (^ <4%)”. Under setting [3], the AX entry is “++ (≥24%)” and the UK result is “++ (≥24%)”.
